Article PMC12703749, “H2O2–Responsive Anticancer Prodrug: Synthesis, Precision Deuteration in Search of In Vivo Metabolites, and Activation Pathway” (Journal of Medicinal Chemistry, 2025)

Assay: In vivo determination of metabolites in urine and feces (HRMS)
Set-up: species or system athymic nude mice
Description: To elucidate the in vivo activation mechanism of the H2O2-responsive prodrugs 10a and 10b, we investigated their metabolic fate in a xenograft mouse model. MDA-MB-468 tumor-bearing athymic nude mice received an intraperitoneal injection of a 1:1 mixture of 10a (nondeuterated, d 0) and 10b (deuterated, d 5) at equimolar doses (15 mg/kg each; total dose: 30 mg/kg). […] These end-products are consistent with a pathway initiated by H2O2-triggered oxidative deboronation of the boronic acid moiety in 10a/10b to yield phenol intermediates 11a/11b, which can undergo either hydrolysis to alcohols 12a/12b followed by N-demethylation, or direct N-demethylation to 13a/13b (Scheme ). The resulting 13a/13b serve as substrates for UDP-glucuronosyltransferase (UGT)-catalyzed conjugation with uridine diphosphate glucuronic acid, ultimately forming glucuronide conjugates 14a and 14b (Figure and Scheme ). Although intermediates 11a,b-13a,b were not detected in vivo, likely due to their rapid turnover and concentrations below the sensitivity of our LC–MS method, the proposed sequence is strongly supported by complementary cell-culture metabolism studies in which two key intermediates (11a,b and 12a,b) were observed (Figures S8 and S9). Detection of both isotopically labeled and unlabeled metabolites therefore provides robust evidence for H2O2-mediated oxidative deboronation in vivo, with the in vitro findings offering additional mechanistic confirmation.
Eight-week-old female athymic nude mice (immunodeficient) were anesthetized with isoflurane and subcutaneously inoculated in the flank with 7.5 × 10^6 MDA-MB-468 cells in 100 μL of a 1:1 mixture of Matrigel and Dulbecco’s Modified Eagle Medium (DMEM). Cells were sourced from the American Type Culture Collection (ATCC) and certified free of bloodborne pathogens. Mice were monitored daily for tumor development and weighed weekly. Upon establishment of palpable xenografts (typically one-week postinoculation), animals were randomized into treatment (n = 3) and control (n = 3) groups. For metabolite profiling, mice were individually housed in Labsand-lined cages (Labsand purchased from BrainTree Scientific, inc.). The treatment group received an IP injection of a 1:1 mixture of compounds 10a (d 0) and 10b (d 5) (100 μL) at a combined dose of […], formulated in DMSO/PBS (1×):PEG400 at a ratio of 2:19:19. The control group received the corresponding vehicle (PBS/PEG400/DMSO, 19:19:2). Food and water were provided ad libitum. Urine and Feces were collected separately at two intervals: 0–24 h and 24–48 h. All collected samples were subsequently stored in −80 °C.
Fecal samples (0.4 g) were thawed on ice from −80 °C. The feces were mixed and homogenized with a pestle in 10 mL centrifuge tube with LCMS grade MeOH (2 mL), then centrifuged for 5 min at 10,000g. The supernatant was transferred to a separate 2 mL centrifuge tube and dried. The resulting feces were subjected to SPE C-18 (Supelco Discovery DSC-18Lt SPE Tube) by initially using 5 mL 18 LCMS grade water and subsequently eluted with LCMS grade MeOH. The organic eluant was collected and dried. The resulting feces mixture was filtered by size exclusion (Amicon Ultra Centrifugal Filter, 3 kDa MWCO). Then the solution was transferred to a sample vial with 300 μL insert and analyzed by Shimadzu HRMS 9030 Q-TOF. Urine samples were thawed on ice from −80 °C, vortexed for 5 s and blended in aliquots of 20 μL MeCN. The samples were vortexed for 15 s and centrifuged for 10 min at 10,000g. The supernatant was transferred to a clean microcentrifuge tube and diluted 10× with 80:20 H2O/MeCN. The resulting solution was filtered by size exclusion (Amicon Ultra Centrifugal Filter, 3 kDa MWCO) at 11k × g.
3. In vivo determination of metabolites from Xenograft models
Table S1. In vivo metabolites of 10a and 10b and HPLC retention time (Rt).a
0 – 24 h (R t/min) 24 – 48 h (R t/min)
Phase II metabolite urine feces urine feces
glucoside <LOD <LOD <LOD <LOD […]

[1] = urine 0–24 h after IP 1:1 mixture of 10a and 10b, total dose 30 mg/kg, HRMS

phase II metabolite in feces (feces 0–24 h, Table S1)	phase II metabolite in feces (feces 24–48 h, Table S1)	phase II metabolite in urine [1]	phase II metabolite in urine (urine 24–48 h, Table S1)	SMILES
< LOD	< LOD	presence	< LOD	CCc1cc(N)ccc1OC1OC(C(=O)O)C(O)C(O)C1O (centres unmarked) [Compound 14a]
< LOD	< LOD	presence	< LOD	[2H]C([2H])([2H])C([2H])([2H])c1cc(N)ccc1OC1OC(C(=O)O)C(O)C(O)C1O (centres unmarked) [Compound 14b]
